The nature of series [1]: Solubility at pH 6.8. It counts as physicochemical. The note with it: pH 6.8, aqueous buffer, thermodynamic from solid; read-out: solubility. The gist of the method: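 Following the procedure of Zhou et al. (2007), compound solubility was determined at pH 6.8.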
Series [2] deals with T1, PI3K alpha (Homo sapiens, UniProt P42336).
T1 construct: p85(iSH2) fusion partner (see partner chain) (N); His tag (C); made in house; host or cells: baculovirus; Tn5 (Trichoplusia ni) or TiniPro insect cells
T1 sequence (P42336 with tags, fused parts or gaps limits assumed): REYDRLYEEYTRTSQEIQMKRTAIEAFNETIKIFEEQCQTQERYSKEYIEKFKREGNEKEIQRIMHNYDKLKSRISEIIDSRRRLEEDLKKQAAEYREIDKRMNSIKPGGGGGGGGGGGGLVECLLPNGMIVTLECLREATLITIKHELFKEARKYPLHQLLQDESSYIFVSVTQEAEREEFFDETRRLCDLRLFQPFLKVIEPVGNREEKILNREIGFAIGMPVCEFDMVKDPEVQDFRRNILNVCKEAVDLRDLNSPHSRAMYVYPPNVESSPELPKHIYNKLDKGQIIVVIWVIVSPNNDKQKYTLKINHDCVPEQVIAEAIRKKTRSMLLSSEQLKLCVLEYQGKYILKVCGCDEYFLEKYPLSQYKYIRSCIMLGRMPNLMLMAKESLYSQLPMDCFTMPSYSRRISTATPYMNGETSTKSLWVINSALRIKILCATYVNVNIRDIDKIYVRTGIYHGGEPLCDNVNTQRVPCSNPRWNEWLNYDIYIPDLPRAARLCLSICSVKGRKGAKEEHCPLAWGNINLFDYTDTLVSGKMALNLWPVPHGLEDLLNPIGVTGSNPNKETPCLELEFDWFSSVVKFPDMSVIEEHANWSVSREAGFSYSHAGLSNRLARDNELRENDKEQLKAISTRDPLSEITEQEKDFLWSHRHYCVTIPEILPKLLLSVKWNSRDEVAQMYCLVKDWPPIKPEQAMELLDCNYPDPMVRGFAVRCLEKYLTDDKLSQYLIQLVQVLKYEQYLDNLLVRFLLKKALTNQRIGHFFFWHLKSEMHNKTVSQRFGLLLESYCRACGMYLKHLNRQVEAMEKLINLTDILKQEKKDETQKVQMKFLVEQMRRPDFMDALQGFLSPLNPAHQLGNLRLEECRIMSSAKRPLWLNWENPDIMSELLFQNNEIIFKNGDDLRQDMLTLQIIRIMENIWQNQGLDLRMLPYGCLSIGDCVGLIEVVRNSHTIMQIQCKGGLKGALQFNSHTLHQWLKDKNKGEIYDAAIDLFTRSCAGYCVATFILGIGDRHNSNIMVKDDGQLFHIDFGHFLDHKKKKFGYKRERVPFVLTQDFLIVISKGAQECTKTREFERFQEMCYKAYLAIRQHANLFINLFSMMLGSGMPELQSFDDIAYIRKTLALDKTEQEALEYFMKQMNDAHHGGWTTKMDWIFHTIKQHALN
Description: PI3K alpha kinase assay (Kinase-Glo luminescence). The class given is biochemical. Summed up:
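Enzyme 10 nM PI3Kα EMV B1075; ATP 1 μM; PI 10 μg/mL; Tris-HCl pH 7.5 10 mM, MgCl2 3 mM, NaCl 50 mM, CHAPS 0.05%, DTT 1 mM; 60 min RT; Kinase-Glo luminescence; 4-parameter IC50 fit, 8 concentrations, single points.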

The target of series [3] is T2, PI3K delta (Homo sapiens, UniProt O00329).
T2 construct: for the full-length p110-d subunit are generated and fused by overlapping PCR; p85(iSH2) fusion partner (see partner chain) (N); His tag (C); made in house; host or cells: baculovirus; Tn5 (Trichoplusia ni) or TiniPro insect cells
T2 sequence (O00329 with tags, fused parts or gaps limits assumed): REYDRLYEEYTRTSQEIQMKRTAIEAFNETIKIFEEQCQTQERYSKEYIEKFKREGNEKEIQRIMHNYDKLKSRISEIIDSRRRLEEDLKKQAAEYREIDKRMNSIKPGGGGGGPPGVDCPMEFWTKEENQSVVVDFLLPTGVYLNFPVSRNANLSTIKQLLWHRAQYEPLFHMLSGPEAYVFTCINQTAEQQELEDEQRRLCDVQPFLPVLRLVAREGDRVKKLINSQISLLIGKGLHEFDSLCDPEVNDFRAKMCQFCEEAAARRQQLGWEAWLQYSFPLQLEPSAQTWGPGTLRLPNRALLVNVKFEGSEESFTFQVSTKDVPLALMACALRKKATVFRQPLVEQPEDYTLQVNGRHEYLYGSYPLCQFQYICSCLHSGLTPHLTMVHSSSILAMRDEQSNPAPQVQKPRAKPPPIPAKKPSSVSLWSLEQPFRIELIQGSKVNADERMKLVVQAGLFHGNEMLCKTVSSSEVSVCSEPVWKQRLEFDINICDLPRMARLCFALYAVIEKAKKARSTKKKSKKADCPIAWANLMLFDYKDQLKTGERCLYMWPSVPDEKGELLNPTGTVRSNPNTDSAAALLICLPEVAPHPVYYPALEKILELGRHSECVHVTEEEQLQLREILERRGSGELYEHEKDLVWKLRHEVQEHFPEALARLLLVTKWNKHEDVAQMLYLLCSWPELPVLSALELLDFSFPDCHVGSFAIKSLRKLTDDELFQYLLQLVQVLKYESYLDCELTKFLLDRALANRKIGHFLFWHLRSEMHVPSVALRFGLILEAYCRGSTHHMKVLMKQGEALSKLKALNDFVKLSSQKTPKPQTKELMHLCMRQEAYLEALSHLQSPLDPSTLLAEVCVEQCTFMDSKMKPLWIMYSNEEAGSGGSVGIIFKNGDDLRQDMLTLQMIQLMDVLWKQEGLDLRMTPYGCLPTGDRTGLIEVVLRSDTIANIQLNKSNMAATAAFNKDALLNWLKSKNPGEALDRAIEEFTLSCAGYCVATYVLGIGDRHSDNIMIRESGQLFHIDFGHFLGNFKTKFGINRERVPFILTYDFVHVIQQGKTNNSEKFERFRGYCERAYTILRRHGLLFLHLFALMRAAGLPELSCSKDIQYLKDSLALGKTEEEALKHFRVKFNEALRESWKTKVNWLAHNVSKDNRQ
Description: PI3K delta kinase assay (Kinase-Glo luminescence). The class given is biochemical. Summed up: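 Lipid kinase activity of a His-tagged p110δ full-length/p85 iSH2 fusion (10 nM) toward bovine liver phosphatidylinositol (10 μg/mL) at 1 μM ATP, pH 7.5, 60 min, room temperature. ATP consumption is quantified by luciferase-based luminescence. Four-parameter logistic fitting gives IC50.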
In general terms: Kinase-Glo reads ATP consumption through a luciferase reaction.

Series [4] has as its system PKB Ser473 phosphorylation in Rat1-myr-HA-p110 alpha cells. Description: Reverse protein array assay, PKB Ser473 phosphorylation in Rat1-myr-p110 alpha cells. Particulars: 0.5 h, pAkt Ser473, 30 minutes compound incubation, read-out: p-PKB IC50. It counts as cell-based. The gist of the method:
(§1)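 After at least 20 h of culture, the p110 isoform-transfected Rat1 lines receive compound in an 8-step dilution series, keeping DMSO at 0.2%, for 30 minutes. Cells are then lysed and lysates arrayed on chips for fluorescence detection of Ser473-phosphorylated PKB.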

Series [5] deals with PKB Ser473 phosphorylation in Rat1-myr-HA-p110 beta cells. Description: Reverse protein array assay, PKB Ser473 phosphorylation in Rat1-myr-p110 beta cells. It counts as cell-based. Particulars: 0.5 h, pAkt Ser473, 30 minutes incubation, read-out: p-PKB IC50. Summed up:
as §1

In brackets after ≈: the same amount, converted by molar mass.

What is called solubility is how much of the substance goes into solution per volume. One may read the IC50 as the point on the concentration scale where inhibition reaches its midpoint. For the compound `Cc1nn(C(C)C)cc1-n1c(=O)n(C)c2cnc3ccc(-c4ccc(N(C)C)nc4)cc3c21` [Example 4.1, 8-(6-Dimethylamino-pyridin-3-yl)-1-(1-isopropyl-3-methyl-1H-pyrazol-4-yl)-3-methyl-1,3-dihydro-imidazo[4,5-c]quinolin-2-one], in series [1], the solubility stood at 336 µg/mL (≈ 761 µM). The IC50 in series [2] is 60 nM; in series [3], 39 nM; in series [4] it was 16 nM; in series [5], 19 nM.
As for `CCOc1cncc(-c2ccc3ncc4c(c3c2)n(-c2cn(C)nc2Cl)c(=O)n4C)c1` [Example 56.4, 1-(3-Chloro-1-methyl-1H-pyrazol-4-yl)-8-(5-ethoxy-pyridin-3-yl)-3-methyl-1,3-dihydro-imidazo[4,5-c]quinolin-2-one], the solubility in series [1] was 14 µg/mL (≈ 32.2 µM). In addition, the IC50 in series [2] turned out to be 5 nM; in series [3], 6 nM; in series [4], 9 nM; in series [5] it was 11 nM.
With `CCOc1ccc(-c2ccc3ncc4c(c3c2)n(-c2cn(CC)nc2C)c(=O)n4C)cn1` [Example 3.5, 8-(6-Ethoxy-pyridin-3-yl)-1-(1-ethyl-3-methyl-1H-pyrazol-4-yl)-3-methyl-1,3-dihydro-imidazo[4,5-c]quinolin-2-one], the solubility in series [1] is 4 µg/mL (≈ 9.33 µM). The IC50 is 37 nM in series [2], 40 nM in series [3], 35 nM in series [4] and 29 nM in series [5].
Consider `CCn1cc(-n2c(=O)n(C)c3cnc4ccc(-c5ccc(OCCOC)c(OC)c5)cc4c32)c(C)n1` [Example 30.2, 1-(1-Ethyl-3-methyl-1H-pyrazol-4-yl)-8-[3-methoxy-4-(2-methoxy-ethoxy)-phenyl]-3-methyl-1,3-dihydro-imidazo[4,5-c]quinolin-2-one], for which the solubility in series [1] came out at 9 µg/mL (≈ 18.5 µM). Besides, the IC50 worked out at 30 nM in series [2], 42 nM in series [3], 44 nM in series [4] and 43 nM in series [5].
In the same order, the values of `CNC(=O)c1ccc(-c2ccc3ncc4c(c3c2)n(-c2cn(C(C)C)nc2C)c(=O)n4C)cn1` [Example 15.3, 5-[1-(1-Isopropyl-3-methyl-1H-pyrazol-4-yl)-3-methyl-2-oxo-2,3-dihydro-1H-imidazo[4,5-c]quinolin-8-yl]-pyridine-2-carboxylic acid methylamide] are 5 µg/mL (≈ 11 µM), 123 nM, 329 nM, 28 nM and 21 nM.
For the compound `CCOc1cc(-c2ccc3ncc4c(c3c2)n(-c2cn(CC)nc2C)c(=O)n4C)ccc1OC` [Example 28.1, 8-(3-Ethoxy-4-methoxy-phenyl)-1-(1-ethyl-3-methyl-1H-pyrazol-4-yl)-3-methyl-1,3-dihydro-imidazo[4,5-c]quinolin-2-one], the solubility in series [1] amounted to 9 µg/mL (≈ 19.7 µM). Moreover, the 50% inhibitory concentration (IC50) in series [2] is under 3 nM; in series [3], 6 nM; in series [4], 7 nM; in series [5], 29 nM.
In the same order, the values of `Cc1ncc(-c2ccc3ncc4c(c3c2)n(-c2cn(C)nc2C)c(=O)n4C)cc1O` [Example 185.1, 1-(1,3-Dimethyl-1H-pyrazol-4-yl)-8-(5-hydroxy-6-methyl-pyridin-3-yl)-3-methyl-1,3-dihydro-imidazo[4,5-c]quinolin-2-one] are 17 µg/mL (≈ 42.5 µM), 5 nM, 9 nM, 13 nM and 46 nM.
As to `Cc1noc(C)c1-n1c(=O)n(C)c2cnc3ccc(-c4cnc(N)c(Cl)c4)cc3c21` [Example 148.4, 8-(6-Amino-5-chloro-pyridin-3-yl)-1-(3,5-dimethyl-isoxazol-4-yl)-3-methyl-1,3-dihydro-imidazo[4,5-c]quinolin-2-one], in series [1], the solubility is 3 µg/mL (≈ 7.13 µM). Besides, the half-inhibitory concentration (IC50) was determined as 100 nM in series [2], 45 nM in series [3], 151 nM in series [4] and 207 nM in series [5].
In the same order, the values of `COCc1ncc(-c2ccc3ncc4c(c3c2)n(-c2cn(C)nc2C)c(=O)n4C)cc1OC(C)C` [Example 191.1, 1-(1,3-Dimethyl-1H-pyrazol-4-yl)-8-(5-isopropoxy-6-methoxymethyl-pyridin-3-yl)-3-methyl-1,3-dihydro-imidazo[4,5-c]quinolin-2-one] are over 473 µg/mL, 14 nM, 6 nM, 14 nM and 54 nM.
Take `Cc1nn(C)cc1-n1c(=O)n(C)c2cnc3ccc(-c4cnc5c(c4)ncn5C)cc3c21` [Example 74, 1-(1,3-Dimethyl-1H-pyrazol-4-yl)-3-methyl-8-(3-methyl-3H-imidazo[4,5-b]pyridin-6-yl)-1,3-dihydro-imidazo[4,5-c]quinolin-2-one]: the solubility in series [1] turned out to be 8 µg/mL (≈ 18.8 µM). Further, the 50% inhibitory concentration (IC50) amounted to 20 nM in series [2], 43 nM in series [3], 20 nM in series [4] and 56 nM in series [5].
In the case of `CCn1cc(-n2c(=O)n(C)c3cnc4ccc(-c5ccc(NC)nc5)cc4c32)c(C)n1` [Example 118.4, 1-(1-Ethyl-3-methyl-1H-pyrazol-4-yl)-3-methyl-8-(6-methylamino-pyridin-3-yl)-1,3-dihydro-imidazo[4,5-c]quinolin-2-one], the solubility in series [1] was found to be 70 µg/mL (≈ 169 µM). For the same compound, the concentration for half-maximal inhibition (IC50) in series [2] is 20 nM; in series [3] it was 19 nM; in series [4], under 5 nM; in series [5], under 5 nM.
On to `Cc1nn(CC(=O)N(C)C)cc1-n1c(=O)n(C)c2cnc3ccc(-c4ccccc4)cc3c21` [Example 37.3, N,N-Dimethyl-2-[3-methyl-4-(3-methyl-2-oxo-8-phenyl-2,3-dihydro-imidazo[4,5-c]quinolin-1-yl)-pyrazol-1-yl]-acetamide], for which the solubility in series [1] was 41 µg/mL (≈ 93.1 µM). Moreover, the 50% inhibitory concentration (IC50) is 71 nM in series [2], 40 nM in series [4] and 235 nM in series [5].
In the case of `Cc1nn(CC(=O)N(C)C)c(C)c1-n1c(=O)n(C)c2cnc3ccc(-c4cncc(OC5CCC5)c4)cc3c21` [Example 60.2, 2-{4-[8-(5-Cyclobutoxy-pyridin-3-yl)-3-methyl-2-oxo-2,3-dihydro-imidazo[4,5-c]quinolin-1-yl]-3,5-dimethyl-pyrazol-1-yl}-N,N-dimethyl-acetamide], the solubility in series [1] was 76 µg/mL (≈ 145 µM). The IC50 in series [2] is 315 nM; in series [3], 694 nM; in series [4] it was 829 nM.
`CCN(C)C(=O)Cn1cc(-n2c(=O)n(C)c3cnc4ccc(-c5cnc(N6CCCC6)nc5)cc4c32)c(C)n1` [Example 140.1, N-Ethyl-N-methyl-2-{3-methyl-4-[3-methyl-2-oxo-8-(2-pyrrolidin-1-yl-pyrimidin-5-yl)-2,3-dihydro-imidazo[4,5-c]quinolin-1-yl]-pyrazol-1-yl}-acetamide]: in series [1], the solubility was 36 µg/mL (≈ 68.5 µM). For the same compound, the IC50 in series [2] stood at 168 nM; in series [4], 84 nM; in series [5], 100 nM.
On to `CCN(C)C(=O)Cn1cc(-n2c(=O)n(C)c3cnc4ccc(-c5ccccc5)cc4c32)c(C)n1` [Example 135, N-Ethyl-N-methyl-2-[3-methyl-4-(3-methyl-2-oxo-8-phenyl-2,3-dihydro-imidazo[4,5-c]quinolin-1-yl)-pyrazol-1-yl]-acetamide], for which the solubility in series [1] turned out to be 164 µg/mL (≈ 361 µM). Besides, the IC50 in series [2] is 76 nM; in series [4], 26 nM; in series [5] it was 118 nM.

For the origin of these results see patent US20140005163A1 (NOVARTIS AG, priority 2010, published 2014).
